Data taken from the supplement of paper PMC9663587.

Experiments:
[1] = compound: CCCCOc1c(C(=O)c2c(F)cc(C)cc2F)c[nH]c2nncc1-2
Luminespib/NVP-AUY922 = compound: CCNC(=O)c1noc(-c2cc(C(C)C)c(O)cc2O)c1-c1ccc(CN2CCOCC2)cc1 [Luminespib/NVP-AUY922]
THZ-P1-2 = compound: CN(C)C/C=C/C(=O)NC1=CC=C(C=C1)C(=O)NC2=CC=CC(=C2)NC3=NC=NC(=C3)C4=CNC5=CC=CC=C54 [THZ-P1-2]
BSJ-01-175 = compound: CN(C)C/C=C/C(=O)Nc1ccc(O[C@@H]2CCC[C@@H](Nc3ncc(Cl)c(-c4c[nH]c5ccccc45)n3)C2)cc1 [BSJ-01-175]
Saracatinib/AZD0530 = compound: CN1CCN(CCOc2cc(OC3CCOCC3)c3c(Nc4c(Cl)ccc5c4OCO5)ncnc3c2)CC1 [Saracatinib/AZD0530]
Ceritinib/LDK378 = compound: Cc1cc(Nc2ncc(Cl)c(Nc3ccccc3S(=O)(=O)C(C)C)n2)c(OC(C)C)cc1C1CCNCC1 [Ceritinib/LDK378]
YKL-5-124 = compound: C=CC(=O)Nc1ccc(C(=O)Nc2[nH]nc3c2CN(C(=O)N[C@H](CN(C)C)c2ccccc2)C3(C)C)cc1 [YKL-5-124]; experiment: increase in dead-cell fraction, 72 h; higher = more death;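 note: breast cancer cell lines in 384-well plates, stained with Hoechst plus LIVE/DEAD far red dye and imaged, cells above an LDR intensity threshold counted dead, Hoechst-negative corpses included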
BSJ-03-123 = compound: CC(=O)c1c(C)c2cnc(Nc3ccc(N4CCN(CCOCCOCCOCCNC(=O)COc5cccc6c5C(=O)N(C5CCC(=O)NC5=O)C6=O)CC4)cn3)nc2n(C2CCCC2)c1=O [BSJ-03-123]; experiment: as above
[2] = compound: CC(=O)c1c(C)c2cnc(Nc3ccc(N4CCNCC4)cn3)nc2n(C2CCCC2)c1=O; experiment: as above
[3] = compound: CCN1CCN(Cc2ccc(Nc3ncc(F)c(-c4cc(F)c5nc(C)n(C(C)C)c5c4)n3)nc2)CC1; experiment: as above
Neratinib/HKI272 = compound: CCOc1cc2ncc(C#N)c(Nc3ccc(OCc4ccccn4)c(Cl)c3)c2cc1NC(=O)/C=C/CN(C)C [Neratinib/HKI272]; experiment: as above
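Throughout, for GR50, 72 h: breast cancer and non-malignant breast epithelial cell lines, Deep Dye Drop or Dye Drop imaging, nine half-log doses, GR normalized to time-zero plates and DMSO-only controls.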

SUM52PE
GR50, 72 h [1]: 0.112 µM
GR50, 72 h (Luminespib/NVP-AUY922): 0.00584 µM
GR50, 72 h (THZ-P1-2): 6.06 µM
GR50, 72 h (BSJ-01-175): 0.0947 µM
GR50, 72 h (Saracatinib/AZD0530): 9.64 µM
GR50, 72 h (Ceritinib/LDK378): > 10 µM
increase in dead-cell fraction (YKL-5-124; 0.001 µM): 0.0072
increase in dead-cell fraction (YKL-5-124; 0.003162 µM): 0.0054
increase in dead-cell fraction (YKL-5-124; 0.01 µM): 0.0099
increase in dead-cell fraction (YKL-5-124; 0.03162 µM): 0.0108
increase in dead-cell fraction (YKL-5-124; 0.1 µM): 0.013
increase in dead-cell fraction (YKL-5-124; 0.3162 µM): 0.0189
increase in dead-cell fraction (YKL-5-124; 1 µM): 0.009
increase in dead-cell fraction (YKL-5-124; 3.162 µM): 0.0202
increase in dead-cell fraction (YKL-5-124; 10 µM): 0.0275
increase in dead-cell fraction (BSJ-03-123; 0.001 µM): -0.0027
increase in dead-cell fraction (BSJ-03-123; 0.003162 µM): 0.001
increase in dead-cell fraction (BSJ-03-123; 0.01 µM): 0.0043
increase in dead-cell fraction (BSJ-03-123; 0.03162 µM): 0.0027
increase in dead-cell fraction (BSJ-03-123; 0.1 µM): 0.0025
increase in dead-cell fraction (BSJ-03-123; 0.3162 µM): 0.0035
increase in dead-cell fraction (BSJ-03-123; 1 µM): 0.0021
increase in dead-cell fraction (BSJ-03-123; 3.162 µM): 0.0075
increase in dead-cell fraction (BSJ-03-123; 10 µM): 0.025
increase in dead-cell fraction ([2]; 0.0003162 µM): 0.0036
increase in dead-cell fraction ([2]; 0.001 µM): -0.0018
increase in dead-cell fraction ([2]; 0.003162 µM): -0.0008
increase in dead-cell fraction ([2]; 0.01 µM): 0.0002
increase in dead-cell fraction ([2]; 0.03162 µM): -0.0011
increase in dead-cell fraction ([2]; 0.1 µM): 0.0033
increase in dead-cell fraction ([2]; 0.3162 µM): 0.0047
increase in dead-cell fraction ([2]; 1 µM): 0.006
increase in dead-cell fraction ([2]; 3.162 µM): 0.0091
increase in dead-cell fraction ([3]; 0.001 µM): -0.0031
increase in dead-cell fraction ([3]; 0.003162 µM): -0.0003
increase in dead-cell fraction ([3]; 0.01 µM): 0.0005
increase in dead-cell fraction ([3]; 0.03162 µM): 0.0052
increase in dead-cell fraction ([3]; 0.1 µM): 0.0077
increase in dead-cell fraction ([3]; 0.3162 µM): 0.0061
increase in dead-cell fraction ([3]; 1 µM): 0.0107
increase in dead-cell fraction ([3]; 3.162 µM): 0.0058
increase in dead-cell fraction ([3]; 10 µM): 0.0135
increase in dead-cell fraction (Neratinib/HKI272; 0.0003162 µM): -0.0009
increase in dead-cell fraction (Neratinib/HKI272; 0.001 µM): 0.0018
increase in dead-cell fraction (Neratinib/HKI272; 0.003162 µM): 0.0022
increase in dead-cell fraction (Neratinib/HKI272; 0.01 µM): 0.0007
increase in dead-cell fraction (Neratinib/HKI272; 0.03162 µM): 0.0026
increase in dead-cell fraction (Neratinib/HKI272; 0.1 µM): 0.0033
